Reference: article PMC5652693, “Coupling to a cancer-selective heparan-sulfate-targeted branched peptide can by-pass breast cancer cell resistance to methotrexate” (Oncotarget, 2017)
“Also recorded” adds a separate entry of the source.

How the values were obtained:
MDA-MB 231 cells = assay: Cytotoxicity with and without heparin, MDA-MB 231; type: cell-based, human; conditions: MDA-MB 231, 610 pM to 10 μM compound in the presence of 1 μM heparin, 6 days at 37°C, MTT
Description: (§1) MCF-7 and MDA-MB 231 cells were plated at a density of 5 × 10^3 per well in 96-well microplates. […] Cell growth was analyzed after 6 days of incubation at 37°C. Growth inhibition was assessed by 3-(4,5-dimethylthiazol-2-yl)-2,5-diphenyltetrazolium bromide (MTT). Cytotoxicity of drug-conjugated NT4 was compared with that of the corresponding free drugs. The experiment was performed twice in triplicate. EC50 values were calculated by non-linear regression analysis using Graph Pad Prism 5.03 software.

[1] = tested on: HT-1376 human bladder carcinoma cells; assay: MTX cytotoxicity screening, HT-1376; type: cell-based
Description: (§2) MCF-7 human breast adenocarcinoma, MDA-MB 231 human breast adenocarcinoma, T-24 human bladder carcinoma, PANC-1 human pancreatic carcinoma, HT29 human colon adenocarcinoma, A375 human melanoma, HT-1376 human bladder carcinoma and OVCAR-3 human ovarian carcinoma cells were grown in their recommended media supplemented with 10% fetal calf serum, 200 μg/ml glutamine, 100 μg/ml streptomycin, 60 μg/ml penicillin, and maintained at 37°C, 5% CO2. MDA-MB 231 was maintained at 37°C without CO2. Cell lines were purchased from ATCC.
as §1, with “software. Values from untreated controls gave 100% cell viability.” for “software.”

[2] = tested on: MDA-MB 231 human breast adenocarcinoma cells; assay: Cytotoxicity (MTT growth inhibition) in MTX-resistant MDA-MB 231 cells; type: cell-based; conditions: MDA-MB 231, 5 × 10^3 cells per well, 6 days at 37°C, twice in triplicate (Figure 6: mean of six experiments ± SD)
Description: as §2, §1

[3] = tested on: T-24 human bladder carcinoma cells; assay: MTX cytotoxicity screening, T-24; type: cell-based
Description: as §2
as §1, with “software. Values from untreated controls gave 100% cell viability.” for “software.”

[4] = tested on: MCF-7 human breast adenocarcinoma cells; assay: Cytotoxicity (MTT growth inhibition) in MTX-sensitive MCF-7 cells; type: cell-based; conditions: MCF7, MCF-7, 5 × 10^3 cells per well, 6 days at 37°C, twice in triplicate (Figure 6: mean of six experiments ± SD)
Description: as §2, §1

MCF-7 cells = assay: Cytotoxicity with and without heparin, MCF-7; type: cell-based, human; conditions: MCF-7, 610 pM to 10 μM compound in the presence of 1 μM heparin, 6 days at 37°C, MTT
Description: as §1

[5] = tested on: HT29 human colon adenocarcinoma cells; assay: MTX cytotoxicity screening, HT29; type: cell-based; conditions: HT-29
Description: as §2
as §1, with “software. Values from untreated controls gave 100% cell viability.” for “software.”

[6] = tested on: OVCAR-3 human ovarian carcinoma cells; assay: MTX cytotoxicity screening, OVCAR-3; type: cell-based
Description: as §2
as §1, with “software. Values from untreated controls gave 100% cell viability.” for “software.”

[7] = tested on: A375 human melanoma cells; assay: MTX cytotoxicity screening, A375; type: cell-based; conditions: A-375
Description: as §2
as §1, with “software. Values from untreated controls gave 100% cell viability.” for “software.”

[8] = tested on: PANC-1 human pancreatic carcinoma cells; assay: MTX cytotoxicity screening, PANC-1; type: cell-based
Description: as §2
as §1, with “software. Values from untreated controls gave 100% cell viability.” for “software.”

[9] = tested on: MCF-7 and MDA-MB 231 cells; assay: Transporter-mediated efflux of Rho 123 by flow cytometry; type: cell-based, human; conditions: 1 μM Rho 123 for 10 minutes, washed, fluorescence monitored 0-120 minutes by flow cytometry
Description: (§3) All experiments were performed using 2 × 10^5 MCF-7 or MDA-MB 231 cells in 96 well U-bottom plates. All dilutions were performed in PBS, containing 5 mM EDTA and 0.5% BSA. 10,000 events were evaluated in a BD FACS Canto II or a BD FACS Calibur (Becton Dickinson, NJ USA). The results were analyzed by FCS Express 6 Flow cytometry software.
To analyze active cell drug export mechanisms, MCF-7 and MDA-MB 231 cells were exposed to 1 μM Rho 123 for 10 minutes, then washed twice with PBS-5 mM EDTA-[…] to remove excess of Rho 123, and fluorescence was monitored immediately (T0) and after 10, 20, 30, 45, 60, 90 and 120 minutes. Each step was followed by three washes in PBS-5 mM EDTA-0.5% BSA. P values were calculated using two-tailed Student's t-test (99% confidence interval) using Graph Pad Prism 5.03 software.

[10] = tested on: orthotopic model of breast cancer; design: method as in PMID 26626158; conditions: orthotopic model of breast cancer in mice, identical experimental conditions for conjugate and free drug; cited from earlier work
Excerpt: In previous studies we investigated the cancer selectivity of tetra-branched peptides containing the sequence of human neurotensin, which we named NT4. We developed theranostic molecules for tumor imaging or therapy by coupling NT4 to different functional units or liposomes.

[11] = tested on: NT4 binding to MDA-MB 231 cells; assay: Inhibition of NT4 binding by heparin or heparin binding proteins (flow cytometry), MDA-MB 231; type: cell-based, human; conditions: 250 nM biotinylated NT4; heparin 20, 10 and 1 μg/ml or 1 μM Midkine or Apolipoprotein E4; 30 min, room temperature; Streptavidin-FITC
Description: as §3
(§4) Inhibition of NT4 binding by heparin was carried out incubating cells with 250 nM biotinylated NT4 and various concentrations (20 μg/ml, 10 μg/ml and 1 μg/ml) of heparin for 30 min at room temperature. Inhibition of NT4 binding by heparin binding proteins was carried out incubating cells with 250 nM biotinylated NT4 and 1 μM Midkine or Apolipoprotein E4 for 30 min at room temperature. Cells were finally incubated with 1 μg/ml Streptavidin-FITC.

[12] = tested on: NT4 binding to MCF-7 cells; assay: Inhibition of NT4 binding by heparin or heparin binding proteins (flow cytometry), MCF-7; type: cell-based, human; conditions: 250 nM biotinylated NT4; heparin 20, 10 and 1 μg/ml or 1 μM Midkine or Apolipoprotein E4; 30 min, room temperature; Streptavidin-FITC
Description: as §3, §4

## CN(Cc1cnc2nc(N)nc(N)c2n1)c1ccc(C(=O)N[C@@H](CCC(=O)O)C(=O)O)cc1 [MTX, methotrexate]
MDA-MB 231 cells
  effect of heparin on cytotoxicity: did not affect
[1]
  EC50: 171 nM
[2]
  EC50: 506 nM
[3]
  EC50: 80.7 nM
[4]
  EC50: 25.8 nM
MCF-7 cells
  effect of heparin on cytotoxicity: did not affect
[5]
  EC50: 60.9 nM
[6]
  EC50: 89.5 nM
[7]
  EC50: 33.7 nM
[8]
  EC50: 23.4 nM

## COC(=O)c1ccccc1-c1c2ccc(=N)cc-2oc2cc(N)ccc12 [Rho 123, Rhodamine 123]
[9]
  drug efflux (Rho 123 signal decrease) compared between cell lines: comparable in the two cell lines

## CC(=O)O[C@H]1C(=O)[C@@]2(C)[C@H]([C@H](OC(=O)c3ccccc3)[C@]3(O)C[C@H](OC(=O)[C@H](O)[C@@H](NC(=O)c4ccccc4)c4ccccc4)C(C)=C1C3(C)C)[C@]1(OC(C)=O)CO[C@@H]1C[C@@H]2O [paclitaxel]
[10]
  tumor regression: not achieved

## Apolipoprotein E4: heparin binding protein
[11]
  inhibition of NT4 binding to MDA-MB 231 cells: inhibited
[12]
  inhibition of NT4 binding to MCF-7 cells: inhibited

## heparin
[11]
  inhibition of NT4 binding to MDA-MB 231 cells: inhibited; also recorded: abolished
[12]
  inhibition of NT4 binding to MCF-7 cells: inhibited; also recorded: abolished

B1: Midkine: heparin binding protein (protein, UniProt P21741 21-143, looked up)
Midkine: VAKKKDKVKKGGPGSECAEWAWGPCTPSSKDCGVGFREGTCGAQTQRIRCRVPCNWKKEFGADCKYKFENWGACDGGTGTKVRQGTLKKARYNAQCQETIRVTKPCTPKTKAKAKAKKGKGKD
[11]
  inhibition of NT4 binding to MDA-MB 231 cells: inhibited
[12]
  inhibition of NT4 binding to MCF-7 cells: inhibited
